In one test the test system is 5-HT, rat fundus strip. The experiment in a line: 5-HT antagonism, rat fundus strip. Particulars: 10 min, read-out: 5HT rat-fundus-strip IC50. As for the experimental part: 5-HT antagonism, rat fundus strip
5-hydroxytryptamine (5-HT).
Rats are killed by a blow on the head and exsanguinated. The stomach fundus is removed and carefully cleaned with Krebs solution at 30° C. The fundus is then stretched over a rounded end of a plastic rod about the thickness of a pencil, whereby the longitudinal direction of the muscle fibers is visible. The fundus is halved by carefully cutting in the central line and in the direction of these fibres. Along this incision two strips with a length of 15-25 mm and with width 1.5-2.5 mm are cut, one from each half of the fundus. The mucosa is then carefully removed. A thread is attached to each end of a strip. One thread is fixed to a pin in the bottom of the organ bath and the other thread is fixed to an isotonic transducer. The strip is kept under a tone of 1.5 to 2.0 g. […] Concentration response curves to 5-HT are obtained by adding 5-HT to the bath in increasing concentrations (0.1 ml of 10^-9 M resulting in 1.0×10^-11 M in the bath, 0.2 ml of 10^-9 M resulting in 3.0×10^-11 M, 0.1 ml of 10^-8 M resulting in about 1×10^-10 M, 0.2 ml of 10^-8 M resulting in about 3×10^-10 M--0.2 ml of 10^-4 resulting in about 3×10^-6 M in the bath). Each concentration of 5-HT is allowed to exert its maximal effect (1-10 min) before the next is added. When the maximal response is reached the tissue is carefully washed. The test substance is added to the bath for 10 min. before examining its effect on a new cumulative 5-HT concentration response curve. From the control concentration effect curve the Km for 5-HT is calculated.
The results are recorded as mean percentage inhibition.
Substrate concentration for 5-HT: 1.0×10^-9 M to 1.0×10^-8 M.
Michaelis-Menten constant for 5-HT is estimated each time.

A further test deals with T1, 5-HT2 receptors (Rattus norvegicus, UniProt P14842).
T1 construct: Whole cortex is dissected out and homogenized; from tissue; host or cells: rat whole cortex membranes
T1 sequence (P14842 whole entry): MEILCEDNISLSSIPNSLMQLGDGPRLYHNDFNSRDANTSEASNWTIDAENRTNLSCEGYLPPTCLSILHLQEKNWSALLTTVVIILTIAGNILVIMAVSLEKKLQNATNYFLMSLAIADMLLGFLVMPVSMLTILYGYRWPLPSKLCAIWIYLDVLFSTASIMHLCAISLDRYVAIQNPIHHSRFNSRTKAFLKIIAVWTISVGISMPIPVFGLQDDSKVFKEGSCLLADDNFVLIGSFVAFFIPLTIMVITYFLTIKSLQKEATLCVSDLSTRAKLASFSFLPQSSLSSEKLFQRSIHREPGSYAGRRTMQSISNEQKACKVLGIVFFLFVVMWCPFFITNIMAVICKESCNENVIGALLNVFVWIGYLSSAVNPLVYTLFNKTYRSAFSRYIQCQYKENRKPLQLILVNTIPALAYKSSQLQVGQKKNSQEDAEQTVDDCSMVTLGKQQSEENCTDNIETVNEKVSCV
The experiment in a line: 3H-spiroperidol binding to rat cortical membranes (5-HT2 receptors). As to conditions: Table 1, read-out: 3H-Spiroperidol bindings 5-HT2 receptors IC50. As for the experimental part: ^3 H-spiroperidol binding to rat cortical membranes (5-HT2 Receptors)
50 mM Tris buffer pH 7.7 (at 25° C.) (icecold) stored in the cold: 7.38 gram Trisma®--7.7/l.
Mixed Tris buffer (icecold) made fresh every day jut before use.
10^-5 M Mianserin: 3.01 mg mianserin-HCl/10 ml H2 O, Diluted 1:100.
3×10^-6 M Sulpiride: 3.41 mg sulpiride/10 ml H2 O, Diluted 0.3 ml to 100 ml.
Whatman GF/B filters 25 mm.
Spiroperidol[benzene ring--^3 H--] approx. 30 Ci/mmol from New England Nuclear
(Diluted daily to 5 nM in 3×10^-6 M sulpiride solution).
Ultra Turrax homogenizer.
Rats are killed by guillutination, exsanguinated and their brains removed. Whole cortex is dissected out and homogenized (Ultra Turrax, 10 sec.) in 100 vol (w/v) icecold 50 mM buffer pH 7.7 (at 25° C.). The homogenate is centrifuged twice at 20.000 g (13.000 rpm) for 10 min. at 4° C., with rehomogenization (Ultra Turrax, 10 sec.) of the intermediate pellet in fresh buffer. The pellet is homogenized (Ultra Turrax, 10 sec.) in 80 volumes (w/v) of icecold, freshly prepared mixed Tris buffer.
(§1) Incubation tubes in triplicate receive on ice 100 μl of drugs dissolved in water, 100 μl of 5 nM ^3 H-spiroperidol and 800 μl of the cold membrane suspension. The tubes are incubated at 37° C. for 10 min. and rapidly filtered under vacuum through Whatman GF/B filters. The tubes are rinsed with 5 ml and thereafter the filters with 2×5 ml icecold 50 mM Tris buffer, pH 7.7 (at 25° C.). The radioactivity on the filters is determined by liquid scintillation counting after the addition of 5 ml of picofluor-15. The unspecific binding of ^3 H-spiroperidol is determined by incubating the samples with 10^-6 M mianserine.
Each series consist of 15-16 triple samples (3 controls, 2-3 containing 10^-6 mianserine and two series of test compounds in 5 concentrations).
The means of the control samples and of the 10^-6 M mianserine samples are calculated.

The nature of test [1]: Catalepsy wire mesh, rat, max. Type of test: in vivo, rats. Particulars: po, read-out: Catalep. ED50 (po). How it is done:
Catalepsy wire mesh, rat, max. (ED50 μmol/kg p.o.)
A vertical wire netting (50 cm×49 cm). The meshes (openings) of the netting are square (1 cm×1 cm). The wire diameter is 2 mm.
The animals are labeled and used in groups of five. The test substance is administered orally (p.o.) at 4 dose levels selected from a fixed dose scale.
The animals are placed in the middle of the vertical wire netting 60, 120, 180, 240, 300 and 360 minutes after administration of the test compound. The animals are considered cataleptic when they remain immobile during a period of 15 seconds. This cataleptic reaction is designated +.
If the rats are "atonic" and passively slide down the wire mesh they are considered not cataleptic. If the animals climb up and down the wire mesh they are nor cataleptic. In both situations the designation - is used.

Another test has as its target T2, D-2 receptors (Rattus norvegicus, UniProt P61169).
T2 construct: The corpora striata are dissected out and homogenized; from tissue; host or cells: rat corpus striatum membranes
The experiment in a line: 3H-spiroperidol binding to rat striatal membranes (D-2 receptors). Particulars: Table 1, read-out: 3H-Spiroperidol bindings DA-2 receptors IC50. How it is done:
3H-spiroperidol binding to rat striatal membranes (D-2 receptors)
0.1% Ascorbic acid (icecold) made fresh every day
50 mM Tris buffer pH 7.7 (at 25° C.) (icecold) stored in the cold
50 mM Tris buffer pH 7.5 (at 25° C.), containing 0.2% ascorbic acid
(icecold) made fresh every day just before use
Mixed Tris buffer (icecold) made fresh every day just before use
96 ml 50 mM Tris pH 7.5 (at 25° C.) containing ascorbic acid
Whatman GF/B filters 25 mm
Spiroperidol[benzene ring-^3 H] approximately 30 Ci/mmol
from New England Nuclear. (Diluted daily to 5 nM in 0.1% ascorbic acid)
Rats are killed by guillutination, exsanguinated and their brains removed. The corpora striata are dissected out and homogenized (Ultra Turrax, 10 sec.) in 100 vol (w/v) icecold 50 mM buffer pH 7.7 (at 25° C.). The homogenate is centrifuged twice at 20.000 g (13.000 rpm) for 10 min at 4° C., with rehomogenization (Ultra Turrax, 10 sec.) of the intermediate pellet in fresh buffer. The pellet is homogenized (Ultra Turrax, 10 sec.) in 200 volumes (w/v) of icecold, freshly prepared mixed Tris buffer.
as §1, with “0.1% ascorbic acid,” for “water,”, “nM^3” for “nM ^3”, “tissue suspension .” for “membrane suspension.”, “min” for “min.”, “scintillation liquid (e.g. picofluor-15).” for “5 ml of picofluor-15.”, “10^-6M (+)butaclamol.” for “10^-6 M mianserine.”
Each series consists of 15 triple samples (3 controls, 2 containing 10^-6M (+)butaclamol, and two series of test compounds in 5 concentrations).
The means of the controls and (+)butaclamol are calculated.

The next test has as its system methylphenidate. The experiment in a line: Methylphenidate antagonism, mice i.p. In kind it is in vivo. As to conditions: Mus musculus, ip, read-out: MePh Antag. ED50 (ip). As for the experimental part: Methylphenidate antagonism (ED50 μmol/kg i.p.)
Perspex observation cages without bottom and lid, consisting of 5 sections each measuring 12×25×30 cm.
Two hours after injection of test substance, methylphenidate, 60 mg/kg, is injected s.c. After administration of methylphenidate the mice are placed in the observation cages, 2 in each cage, where they remain for exactly 1 hour. The cages are placed on corrugated paper, the corrugations facing upwards. It is examined whether the mice have been biting the corrugated paper or not.
The result is stated in fractions: 0/3, 1/3, 2/3 and 3/3 where 0, 1, 2 and 3 are the number of pairs which have not been biting on receipt of the dose in question.

Where [2] appears, read: Table 1, rat fundus strip in vitro, 10 min pre-exposure.
[3] abbreviates: Table 1, rat, p.o., max. effect within 6 h.
The mark [4] stands for this setting: Table 1, mice, i.p., 2 h before methylphenidate 60 mg/kg s.c.

Structures can show the parent of a compound that is named as a salt. Where two headings read alike, the source gives them in different places.

T2 sequence (P61169 whole entry): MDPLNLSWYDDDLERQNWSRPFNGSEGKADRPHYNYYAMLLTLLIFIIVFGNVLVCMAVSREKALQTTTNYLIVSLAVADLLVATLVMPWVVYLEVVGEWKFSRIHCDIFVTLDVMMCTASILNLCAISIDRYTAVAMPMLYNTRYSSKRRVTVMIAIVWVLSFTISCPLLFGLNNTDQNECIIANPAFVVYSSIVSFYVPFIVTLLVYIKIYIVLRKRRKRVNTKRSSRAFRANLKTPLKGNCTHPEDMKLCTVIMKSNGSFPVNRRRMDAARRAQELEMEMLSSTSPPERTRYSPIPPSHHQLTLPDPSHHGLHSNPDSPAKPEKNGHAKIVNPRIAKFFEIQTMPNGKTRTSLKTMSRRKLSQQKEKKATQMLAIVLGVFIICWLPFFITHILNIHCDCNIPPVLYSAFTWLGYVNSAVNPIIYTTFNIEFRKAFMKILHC

One may read the IC50 as the midpoint of a concentration-inhibition curve. What is called ED50 is the dose at which the effect has come halfway, by size or by number of responders. For the compound `O=C1NCCN1CCN1CCC(C2C=C(c3ccc(F)cc3)c3ccc(F)cc32)CC1` (centres unmarked) [Lu 20-053, 6-Fluoro-3-(4'-fluorophenyl)-1-(1-(2-imidazolidinon-1-ylethyl)-4-piperidyl)-2-indene], the IC50 is 69 nM in the test with 5-HT, rat fundus strip (Rattus norvegicus); 31 nM at 5-HT2 receptors; 83 nM on D-2 receptors. In addition, the ED50 is above 94 µmol/kg in test [1] (Rattus norvegicus, 6 h) and 19.5 µmol/kg in the test with methylphenidate.

For `CSc1ccc2c(c1)C(N1CCN(C)CC1)Cc1ccccc1S2` (centres unmarked) [Methiothepin, reference compound], the half-maximal inhibitory concentration (IC50) is 58 nM in the test on 5-HT, rat fundus strip (Rattus norvegicus); 6.8 nM at 5-HT2 receptors; 2.6 nM at D-2 receptors. Further, the ED50 in test [1] (Rattus norvegicus, 6 h) came to 2.3 µmol/kg; in the test on methylphenidate, 2.5 µmol/kg.

For the compound `OCCN1CCN(CC/C=C2/c3ccccc3Sc3ccc(C(F)(F)F)cc32)CC1` [Cis(Z)-flupentixol, reference compound], the IC50 in the test with 5-HT, rat fundus strip (Rattus norvegicus) amounted to 1050 nM; at 5-HT2 receptors it was 13 nM. For the same compound, the ED50 was 2.1 µmol/kg in test [1] (Rattus norvegicus, 6 h) and 0.14 µmol/kg in the test on methylphenidate.

Regarding `Cc1ccc2c(c1)C(C1CCN(CCO)CC1)=CC2c1ccc(F)cc1` (centres unmarked) [Lu 20-008, 3-(4'-Fluorophenyl)-1-(1-hydroxyethyl-4-piperidyl)-6-methyl-1-indene, hydrochloride], the concentration for half-maximal inhibition (IC50) in the test on 5-HT, rat fundus strip (Rattus norvegicus) was 16 nM; on 5-HT2 receptors, 4 nM; at D-2 receptors, 8.9 nM. Further, the ED50 came to 2.3 µmol/kg in test [1] (Rattus norvegicus, 6 h) and 0.64 µmol/kg in the test with methylphenidate.

For `O=C(c1ccc(F)cc1)C1CCN(CCn2c(=O)[nH]c3ccccc3c2=O)CC1` [Ketanserin, reference compound], the concentration for half-maximal inhibition (IC50) is above 10000 nM in the test with 5-HT, rat fundus strip (Rattus norvegicus) and 2300 nM at D-2 receptors.

Regarding `CN1CCC(=C2C=C(c3ccc(F)cc3)c3ccc(F)cc32)CC1` [Lu 19-151, 6-Fluoro-3-(4'-fluorophenyl)-1-(1-methyl-4-piperidylidenyl)-2-indene, hydrochloride], the IC50 in the test on 5-HT, rat fundus strip (setting [2]) worked out at 7500 nM. Besides, the ED50 in test [1] (setting [3]) was 32.9 µmol/kg; with methylphenidate (setting [4]) it was 32.5 µmol/kg.

`CN1CCC(C2=CC(c3ccc(F)cc3)c3ccc(C(F)(F)F)cc32)CC1` (centres unmarked) [Lu 20-071, 3-(4'-Fluorophenyl)-1-(1-methyl-4-piperidyl)-6-trifluoromethyl-1-indene, hydrobromide]: the IC50 came to 1000 nM with 5-HT, rat fundus strip (Rattus norvegicus) and 15 nM on 5-HT2 receptors. The ED50 turned out to be 2 µmol/kg in test [1] (Rattus norvegicus, 6 h) and 1.7 µmol/kg in the test with methylphenidate.

For `Cc1ccc2c(c1)C(C1=CCN(C)CC1)=CC2c1ccc(F)cc1` (centres unmarked) [Lu 20-041, 3-(4'-Fluorophenyl)-6-methyl-1-(1-methyl-1,2,3,6-tetrahydropyrid-4-yl)-1-indene, hydrobromide], the IC50 in the test on 5-HT, rat fundus strip (setting [2]) stood at 85 nM. For the same compound, the results for the median effective dose (ED50) (in test [1] (setting [3]); with methylphenidate (setting [4])) were 1.6 µmol/kg and 0.14 µmol/kg, respectively.

As for `OCCN1CCC(C2=CC(c3ccc(F)cc3)c3ccc(F)cc32)CC1` (centres unmarked) [Lu 19-158, hydrochloride], the concentration for half-maximal inhibition (IC50) in the test on 5-HT, rat fundus strip (Rattus norvegicus) was determined as 26 nM; on 5-HT2 receptors, 2.8 nM; on D-2 receptors it was 12 nM. Also, the ED50 was 26 µmol/kg in test [1] (Rattus norvegicus, 6 h) and 4.2 µmol/kg in the test on methylphenidate.

On to `OCCN1CC=C(C2=CC(c3ccc(F)cc3)c3ccc(C(F)(F)F)cc32)CC1` (centres unmarked) [Lu 20-004, 3-(4'-Fluorophenyl)-1-(1-hydroxyethyl-1,2,3,6-tetrahydropyrid-4-yl)-6-trifluoromethyl-1-indene, hydrobromide], for which the IC50 with 5-HT, rat fundus strip (Rattus norvegicus) is 3260 nM; on 5-HT2 receptors, 35 nM. The ED50 in test [1] (Rattus norvegicus, 6 h) is 1.3 µmol/kg; in the test on methylphenidate it was 1 µmol/kg.

Take `Cc1ccc2c(c1)C(C1=CCN(CCO)CC1)=CC2c1ccc(F)cc1` (centres unmarked) [Lu 19-153, 3-(4'-Fluorophenyl)-1-(1-hydroxyethyl-1,2,3,6-tetrahydropyrid-4-yl)-6-methyl-1-indene, hydrobromide]: the 50% inhibitory concentration (IC50) in the test with 5-HT, rat fundus strip (Rattus norvegicus) is 34 nM; at 5-HT2 receptors, 4.6 nM. Besides, the ED50 was found to be 1.4 µmol/kg in test [1] (Rattus norvegicus, 6 h) and 0.39 µmol/kg with methylphenidate.

The values are drawn from patent US4525360A, “Anti-psychotic phenylindene derivatives and acid addition salts thereof” (Kefalas A/S, priority 1982, dated 1985).
